This is an account of results in US11382946B2, “Multi-functional peptides and use thereof” (NOVACELL TECHNOLOGY INC., priority 2019, dated 2022).

Non-standard residues stand in square brackets, D forms with d. Residues, ends and D or L forms follow the SMILES beside them. *: point of attachment. 2Nal = N[C@@H](Cc1ccc2ccccc2c1)C(=O)O; Nle = CCCC[C@H](N)C(=O)O; Octanoyl = CCCCCCCC(=O)* A value given as a limit tells only on which side of the number the result lay.

In assay [1] the target is T1, FPR2 (Homo sapiens, UniProt P25090).
T1 construct: expressed in transfected cells; host or cells: RBL cells overexpressing FPR2 (FPR2-RBL)
T1 sequence (P25090 1-351): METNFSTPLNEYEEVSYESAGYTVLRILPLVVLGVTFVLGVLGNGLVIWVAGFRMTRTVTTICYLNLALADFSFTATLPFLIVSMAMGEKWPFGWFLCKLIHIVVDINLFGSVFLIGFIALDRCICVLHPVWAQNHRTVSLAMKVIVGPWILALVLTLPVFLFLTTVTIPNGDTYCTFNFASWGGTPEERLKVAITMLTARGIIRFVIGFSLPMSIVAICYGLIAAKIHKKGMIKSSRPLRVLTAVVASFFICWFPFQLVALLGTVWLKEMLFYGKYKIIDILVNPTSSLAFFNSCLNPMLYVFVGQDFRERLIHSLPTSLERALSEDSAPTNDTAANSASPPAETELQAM
As to the kind of experiment: FPR2 activation by intracellular calcium ion increase (Fura-2/AM) in FPR2-RBL cells. The format is cell-based. The note with it: RBL cells overexpressing FPR2. How it is done:
The present inventors observed a change in calcium ion permeability of the candidate peptides according to an embodiment of the present invention in order to determine whether they can activate the immunomodulatory function in a body or not. Particularly, intracellular concentration of calcium ions was measured to confirm that the peptide activates FPR2. RBL cells that do neither express FPR1 nor FPR2, RBL cells overexpressed FPR1 (FPR1-RBL) and RBL cells that overexpressed FPR2 (FPR2-RBL) were used and Fura-2/AM which is a fluorophore having high binding affinity to calcium in order to measure intracellular calcium ion level sensitively. For this purpose, cells were cultured in RPMI medium supplemented with 10% fetal bovine serum and harvested by centrifugation in log phase (mid-log phase, 1-3×10^7 cells/ml), and then washed several times with RPMI medium not supplemented with fetal bovine serum, and then the cells were resuspended in RPMI medium to 1×10^7 cells/ml. Subsequently, a final 3 μM concentration of Fura-2/AM was added and the cells were incubated for 45 minutes in a 37° C., 5% CO2 incubator. After the appropriated time, the cells are harvested, washed again with RPMI medium, and then suspended in the appropriate amount of RPMI medium supplemented with 250 μM of sulfinpyrazone, in order to prevent loss of Fura-2 entering the cells. About 2×10^6 cells were taken each time, harvested by rapid centrifugation, and resuspended in 1 ml of a Locke solution without addition of calcium ions and EGTA added, and the ratio of absorbance at two wavelengths of 340 nm and 380 nm on a spectrophotometer were monitored by treating the peptides according to an embodiment of the present invention at different concentrations (1 μM, 0.1 μM, and 0.01 μM) at intervals of about 1 minute, and then the difference in absorbance at two wavelengths was investigated. It was converted to the concentration of free calcium ions into cells according to the method of Grynkiewicz.
In general terms: Calcium flux is commonly read through the fluorescence of an indicator in the cells.

Assay [2] relates to P. aeruginosa. Type of assay: cell-based, Pseudomonas aeruginosa. The note with it: 18 h. How it is done: (§1) The present inventors evaluated […] in order to select peptides showing excellent performance among various peptides synthesized in the Example 1. Particularly, in order to measure the antimicrobial activity of the peptide, after preparing Gram-positive bacteria Staphylococcus aureus (S. aureus) and Gram-negative bacteria Pseudomonas aeruginosa (P. aeruginosa), the bacteria were plated on agar plate medium by fourth streaking and cultured overnight in a 36° C. incubator. The next day, the strain colonies produced on the agar plate medium were inoculated into 3 ml nutrient medium and cultured overnight in a stirring incubator at 36° C. and 220 rpm. The next day, the bacteria were diluted to measure absorbance at 600 nm, adjusted to OD600=0.5, and diluted in a 1:100 ratio in nutrient medium. Then, the peptides prepared in the above Examples were serially diluted in concentrations of 0, 1.25, 2.5, 5, 10, and 20 μM in a nutrient medium to prepare 1 ml each, and then inoculated with 1 ml of the diluted bacteria. Subsequently, the mixture was stirred under conditions of 36° C. and 220 rpm, and incubated for 18 hours, and absorbance at 600 nm was measured.
(§2) As a result, 20 peptides showing high antibacterial activity against P. aeruginosa and S. aureus) were selected (FIGS. 2 and 3).

Assay [3] has as its system S. aureus. Type of assay: cell-based, Staphylococcus aureus. The note with it: 18 h. How it is done: as §1, §2

For `CSCC[C@@H](NC(=O)[C@@H](NC(=O)[C@H](CCCNC(=N)N)NC(=O)[C@H](Cc1c[nH]c2ccccc12)NC(=O)[C@H](Cc1c[nH]c2ccccc12)NC(=O)[C@H](CCCNC(=N)N)NC(=O)[C@H](Cc1ccc2ccccc2c1)NC(C)=O)C(C)C)C(N)=O` [Peptide V21_Ac, Ac-ZRWWRVm-NH2] (Ac-[2Nal]RWWRV[dM]-NH2), the EC50 – broadly, the midpoint of the concentration-response curve – in assay [1] amounted to 0.0923 µM. Further, the “Antimicrobial activity (IC50, μg/ml) P. aeruginosa” value in assay [2] is >50 µg/mL. The “Antimicrobial activity (IC50, μg/ml) S. aureus” value in assay [3] worked out at 9.4 µg/mL.
The matching figures for `CCCCCCCC(=O)N[C@@H](CCCNC(=N)N)C(=O)N[C@@H](Cc1c[nH]c2ccccc12)C(=O)N[C@@H](CCCNC(=N)N)C(=O)N[C@@H](Cc1c[nH]c2ccccc12)C(=O)N[C@@H](CCCNC(=N)N)C(=O)N[C@@H](Cc1ccc(O)cc1)C(=O)N[C@@H](CCSC)C(=O)N[C@H](C(=O)N[C@H](CCSC)C(N)=O)C(C)C` [Peptide V8, Oct-RWRWRYMVm-NH2] (Octanoyl-RWRWRYMV[dM]-NH2): 0.0064 µM, 24.4 µg/mL and 13.0 µg/mL.
As to `CCCCCCCC(=O)N[C@@H](CCCNC(=N)N)C(=O)N[C@@H](Cc1c[nH]c2ccccc12)C(=O)N[C@@H](CCCNC(=N)N)C(=O)N[C@@H](Cc1c[nH]c2ccccc12)C(=O)N[C@@H](Cc1ccc2ccccc2c1)C(=O)N[C@@H](Cc1c[nH]c2ccccc12)C(=O)N[C@H](CCSC)C(N)=O` [Peptide V18, Oct-RWRWZWm-NH2] (Octanoyl-RWRW[2Nal]W[dM]-NH2), the EC50 in assay [1] amounted to 0.0628 µM. In addition, the “Antimicrobial activity (IC50, μg/ml) P. aeruginosa” value in assay [2] worked out at 16.2 µg/mL. Also, the “Antimicrobial activity (IC50, μg/ml) S. aureus” value in assay [3] was 2.3 µg/mL.
For `CCCCCCCC(=O)N[C@@H](CCCCN)C(=O)N[C@@H](Cc1c[nH]c2ccccc12)C(=O)N[C@@H](CCCCN)C(=O)N[C@@H](Cc1c[nH]c2ccccc12)C(=O)N[C@@H](CCCC)C(=O)N[C@@H](Cc1ccc(O)cc1)C(=O)N[C@H](CCSC)C(N)=O` [Peptide V4, Oct-KWKW-Nle-Ym-NH2] (Octanoyl-KWKW[Nle]Y[dM]-NH2), in assay [1], the EC50 came out at 0.064 µM. In addition, the “Antimicrobial activity (IC50, μg/ml) S. aureus” value in assay [3] came to 5.1 µg/mL.
With `CCCCCCCC(=O)N[C@@H](CCCNC(=N)N)C(=O)N[C@@H](Cc1c[nH]c2ccccc12)C(=O)N[C@@H](CCCNC(=N)N)C(=O)N[C@@H](Cc1c[nH]c2ccccc12)C(=O)N[C@@H](CCCNC(=N)N)C(=O)N[C@@H](Cc1c[nH]c2ccccc12)C(=O)N[C@@H](CCSC)C(=O)N[C@H](C(=O)N[C@H](CCSC)C(N)=O)C(C)C` [Peptide V9, Oct-RWRWRWMVm-NH2] (Octanoyl-RWRWRWMV[dM]-NH2), the EC50 in assay [1] stood at 0.0047 µM. Further, the “Antimicrobial activity (IC50, μg/ml) S. aureus” value in assay [3] was determined as 12.7 µg/mL.
The matching figures for `CCCCCCCC(=O)N[C@@H](CCCCN)C(=O)N[C@@H](Cc1ccccc1)C(=O)N[C@@H](CCCCN)C(=O)N[C@@H](Cc1c[nH]c2ccccc12)C(=O)N[C@@H](CCCNC(=N)N)C(=O)N[C@@H](Cc1ccc(O)cc1)C(=O)N[C@@H](CCSC)C(=O)N[C@H](C(=O)N[C@H](CCSC)C(N)=O)C(C)C` [Peptide V6, Oct-KFKWRYMVm-NH2] (Octanoyl-KFKWRYMV[dM]-NH2): 0.0042 µM and >50 µg/mL.
Regarding `CSCC[C@@H](NC(=O)[C@H](Cc1c[nH]c2ccccc12)NC(=O)[C@H](CCCNC(=N)N)NC(=O)[C@H](Cc1c[nH]c2ccccc12)NC(=O)[C@H](Cc1c[nH]c2ccccc12)NC(=O)[C@@H](NC(=O)[C@H](CCCNC(=N)N)NC(=O)[C@H](Cc1c[nH]c2ccccc12)NC(=O)[C@H](Cc1c[nH]c2ccccc12)NC(=O)[C@H](CCCNC(=N)N)NC(=O)[C@H](Cc1ccc2ccccc2c1)NC(C)=O)C(C)C)C(N)=O` [Peptide V22_Ac, Ac-ZRWWRVWWRWm-NH2] (Ac-[2Nal]RWWRVWWRW[dM]-NH2), the EC50 in assay [1] stood at 0.0162 µM. The “Antimicrobial activity (IC50, μg/ml) P. aeruginosa” value in assay [2] is >50 µg/mL. For the same compound, in assay [3], the “Antimicrobial activity (IC50, μg/ml) S. aureus” value was found to be 13.6 µg/mL.
The matching figures for `CCCC[C@H](NC(=O)[C@H](CCCNC(=N)N)NC(=O)[C@H](Cc1c[nH]c2ccccc12)NC(=O)[C@H](Cc1c[nH]c2ccccc12)NC(=O)[C@H](CCCNC(=N)N)NC(=O)[C@H](Cc1ccc2ccccc2c1)NC(C)=O)C(=O)N[C@@H](Cc1c[nH]c2ccccc12)C(=O)N[C@@H](Cc1c[nH]c2ccccc12)C(=O)N[C@@H](CCCNC(=N)N)C(=O)N[C@@H](Cc1c[nH]c2ccccc12)C(=O)N[C@H](CCSC)C(N)=O` [Peptide V23_Ac, Ac-ZRWWR-Nle-WWRWm-NH2] (Ac-[2Nal]RWWR[Nle]WWRW[dM]-NH2): 0.0613 µM, >50 µg/mL and 13.3 µg/mL.
For `CSCC[C@@H](NC(=O)[C@H](Cc1c[nH]c2ccccc12)NC(=O)[C@H](Cc1ccc2ccccc2c1)NC(=O)[C@H](Cc1c[nH]c2ccccc12)NC(=O)[C@H](CCCNC(=N)N)NC(=O)[C@H](Cc1c[nH]c2ccccc12)NC(=O)[C@@H](N)CCCNC(=N)N)C(N)=O` [Peptide V18_0, RWRWZWm-NH2] (H-RWRW[2Nal]W[dM]-NH2), the EC50 in assay [1] worked out at 0.01 µM. Also, the “Antimicrobial activity (IC50, μg/ml) P. aeruginosa” value in assay [2] came out at 21.1 µg/mL. Also, the “Antimicrobial activity (IC50, μg/ml) S. aureus” value in assay [3] turned out to be 6.8 µg/mL.
In the case of `CCCC[C@H](NC(=O)[C@H](Cc1c[nH]c2ccccc12)NC(=O)[C@H](Cc1c[nH]c2ccccc12)NC(=O)[C@H](CCCNC(=N)N)NC(=O)[C@H](Cc1ccc2ccccc2c1)NC(C)=O)C(=O)N[C@@H](Cc1c[nH]c2ccccc12)C(=O)N[C@H](CCSC)C(N)=O` [Peptide V20_Ac, Ac-ZRWW-Nle-Wm-NH2] (Ac-[2Nal]RWW[Nle]W[dM]-NH2), in assay [1], the EC50 was 0.0453 µM. Further, the “Antimicrobial activity (IC50, μg/ml) P. aeruginosa” value in assay [2] was >50 µg/mL. For the same compound, the “Antimicrobial activity (IC50, μg/ml) S. aureus” value in assay [3] was >50 µg/mL.
In the case of `N=C(N)NCCC[C@H](NC(=O)[C@H](Cc1c[nH]c2ccccc12)NC(=O)[C@@H](N)CCCNC(=N)N)C(=O)N[C@@H](Cc1c[nH]c2ccccc12)C(=O)N[C@@H](Cc1ccc2ccccc2c1)C(=O)N[C@@H](Cc1c[nH]c2ccccc12)C(N)=O` [Peptide V16_0, RWRWZW-NH2] (H-RWRW[2Nal]W-NH2), the “Antimicrobial activity (IC50, μg/ml) P. aeruginosa” value in assay [2] is 4.3 µg/mL. The “Antimicrobial activity (IC50, μg/ml) S. aureus” value in assay [3] came out at 30.2 µg/mL.
On to `CCCCCCCC(=O)N[C@@H](CCCCN)C(=O)N[C@@H](Cc1ccccc1)C(=O)N[C@@H](CCCCN)C(=O)N[C@@H](Cc1c[nH]c2ccccc12)C(=O)N[C@@H](CCCC)C(=O)N[C@@H](Cc1ccc(O)cc1)C(=O)N[C@H](CCSC)C(N)=O` [Peptide V3, Oct-KFKW-Nle-Ym-NH2] (Octanoyl-KFKW[Nle]Y[dM]-NH2), for which, in assay [1], the EC50 was 0.107 µM. Also, the “Antimicrobial activity (IC50, μg/ml) S. aureus” value in assay [3] was 15.2 µg/mL.
For the compound `CCCCCCCC(=O)N[C@@H](CCCNC(=N)N)C(=O)N[C@@H](Cc1c[nH]c2ccccc12)C(=O)N[C@@H](CCCNC(=N)N)C(=O)N[C@@H](Cc1c[nH]c2ccccc12)C(=O)N[C@@H](Cc1ccc2ccccc2c1)C(=O)N[C@@H](Cc1c[nH]c2ccccc12)C(N)=O` [Peptide V16, Oct-RWRWZW-NH2] (Octanoyl-RWRW[2Nal]W-NH2), in assay [2], the “Antimicrobial activity (IC50, μg/ml) P. aeruginosa” value is 7.3 µg/mL. Besides, the “Antimicrobial activity (IC50, μg/ml) S. aureus” value in assay [3] came out at 2.7 µg/mL.
